Test results from patent US11338007B2, “Combination formulation of three antiviral compounds” (priority 2016, dated 2022).

Assays:
[1] = Physical stability of tablets spiked with crystalline voxilaprevir Form VIII and Form X (Tables 22, 23); format: physicochemical; conditions: in tablets in the presence of pre-existing crystalline voxilaprevir
Experimental: For each of the impact studies, the sofosbuvir/velpatasvir SSD/voxilaprevir SSD tablets were packaged in a designated commercial packaging configuration (28-count, 100 mL HPDE bottle, coil, 1 g desiccant), and stored for 12 weeks at 25° C./60% RH and 40° C./75% RH. Tablets were also packaged in open containers (28-count, 100 mL HPDE bottle without cap) and stored for 4 weeks at 40° C./75% RH and for 1 week at 50° C./92% RH.
The impact of crystalline voxilaprevir Form VIII and Form X seeds on the physical stability and dissolution of sofosbuvir/velpatasvir SSD/voxilaprevir SSD tablets was evaluated (Tables 22 and 23). As described in Table 22, sofosbuvir/velpatasvir SSD/voxilaprevir SSD tablets Lots A and B were spiked with 5 and 10% w/w Form VIII (% w/w with respect to total voxilaprevir), respectively. Sofosbuvir/velpatasvir SSD/voxilaprevir SSD tablets Lots C and D, as described in Table 23, were spiked with 10 and 20% w/w Form X (% w/w with respect to total voxilaprevir), respectively.

[2] = Relative bioavailability of voxilaprevir amorphous free acid tablets vs Form VI tablets, fasted and fed, healthy subjects (Table 3); format: in vivo, human
Source text: Accordingly, a spray dried dispersion of voxilaprevir in the amorphous free acid form was selected for incorporation into the tablet formulation.

[3] = Solid-state properties and open-container stability of sofosbuvir Forms 6 and 7; format: physicochemical
Source text: In some embodiments, and the Examples presented herein, the tablet formulation includes sofosbuvir having Form 6 and, optionally, a trace amount of Form 7. […] Form 6 of sofosbuvir is the thermodynamically stable form and remains physically stable when suspended in water. Form 7 of Sofosbuvir, while physically stable in water for short periods of time, can be converted to Form 6 with prolonged stirring.

[4] = Aqueous solubility of voxilaprevir Form VIII relative to Form VI; format: physicochemical
[5] = Food effect (high calorie/high-fat meals) on pharmacokinetics in human subjects (Table 28); format: in vivo; conditions: tablets 400/100/100 mg; high calorie/high-fat meal
Experimental: The effect of food (high calorie/high-fat meals) on the pharmacokinetics of sofosbuvir/velpatasvir SSD/voxilaprevir SSD tablets (400/100/100 mg). […] As a result, sofosbuvir/velpatasvir SSD/voxilaprevir SSD tablets are administered with food.

[6] = 100 mg tablets, healthy subjects

## CC[C@@H]1[C@@H]2CN(C(=O)[C@H](C(C)(C)C)NC(=O)O[C@@H]3C[C@H]3CCCCC(F)(F)c3nc4ccc(OC)cc4nc3O2)[C@@H]1C(=O)N[C@]1(C(=O)NS(=O)(=O)C2(C)CC2)C[C@H]1C(F)F [Amorphous Free Acid, voxilaprevir]
[1]
  tendency to crystallize: no tendency to crystallize
[2]; [6]
  higher Cmax compared to Form VI tablets (2×50 mg): ~43%
  higher exposure (AUC) compared to Form VI tablets (2×50 mg): approximately 9%
[2]; single dose 100 mg, healthy subjects, fed (with moderate food)
  Cmax: 44.2 ng/mL
[2]; single dose, fasted
  Geometric Least Square Ratio Amorphous Free Acid/Form VI GMR, AUCinf: 1.09
  Geometric Least Square Ratio Amorphous Free Acid/Form VI GMR, Cmax: 1.43

## CC(C)OC(=O)[C@H](C)N[P@](=O)(OC[C@H]1O[C@@H](n2ccc(=O)[nH]c2=O)[C@](C)(F)[C@@H]1O)Oc1ccccc1 [Form 6, sofosbuvir]
[3]
  hygroscopicity: non-hygroscopic
  photosensitivity: not photosensitive
[3]; open container, 1 month at 40° C./75% RH
  physical and chemical stability: physically and chemically stable

## CC[C@@H]1[C@@H]2CN(C(=O)[C@H](C(C)(C)C)NC(=O)O[C@@H]3C[C@H]3CCCCC(F)(F)c3nc4ccc(OC)cc4nc3O2)[C@@H]1C(=O)N[C@]1(C(=O)NS(=O)(=O)C2(C)CC2)C[C@H]1C(F)F [Form VIII, voxilaprevir]
[4]
  aqueous solubility, less than that of crystalline Form VI: approximately 50%

## C[C@@]1(F)[C@H](O)[C@@H](CO)O[C@H]1n1ccc(=O)[nH]c1=O [Formulation M1]
[5]
  effect of food on plasma exposure: does not substantially alter

## C[C@H](NP(=O)(O)OC[C@H]1OC(n2ccc(=O)[nH]c2=O)[C@](C)(F)[C@@H]1O)C(=O)O (stereo partly shown) [Formulation M2]
[5]
  effect of food on plasma exposure: does not substantially alter

## COC[C@H]1C[C@@H](c2ncc(-c3ccc4c(c3)COc3cc5c(ccc6nc([C@@H]7CC[C@H](C)N7C(=O)[C@@H](NC(=O)OC)C(C)C)[nH]c65)cc3-4)[nH]2)N(C(=O)[C@H](NC(=O)OC)c2ccccc2)C1 [amorphous velpatasvir free base, velpatasvir]
[1]
  tendency to crystallize: no tendency to crystallize
